Read-outs that look alike come from different tables or passages of the source.
Key:
[1] = test system: HER3 expression in A549 human lung xenografts; experiment: HER3 modulation in A549 tumors; type: in vivo, Swiss nude mice
Method: Briefly, mice bearing measurable lung A549 tumors implanted SC have been left untreated or treated either by MM121 as a single agent (at dose of 5 mg/kg or 30 mg/kg, one administration) or by compound A as a single agent (at dose of 30 mg/kg or 100 mg/kg, daily administrations) or by a combination of both (at 30 mg/kg for MM121 and 100 mg/kg for compound A). The HER3 expression level in xenografted tumors has been followed for up to 96 hours.

[2] = Method: The lung cancer cell line A549 was selected for this study. […] Lung A549 cells were implanted s.c. in female Swiss nude mice using standard techniques. […] Control groups were left untreated. […]
For the evaluation of anti-tumor activity of conjugates, animals were weighed daily and tumors were measured twice weekly by caliper. A dosage producing a 20% weight loss at nadir (mean of group) or a 15% weight loss (mean of group) three successive times or drug deaths, was considered an excessively toxic dosage. Animal body weights included the tumor weights. Tumor weights were calculated using the formula mass (mg)=[length (mm)×width (mm)2]/2. The primary efficacy end points are ΔT/ΔT, percent median regression, partial and complete regressions (PR and CR), and Tumor free survivors (TFS). Changes in tumor volume for each treated (T) and control (C) were calculated for each tumor by subtracting the tumor volume on the day of first treatment (staging day) from the tumor volume on the specified observation day. The median ΔT was calculated for the treated group, and the median ΔT was calculated for the control group. Then the ratio ΔT/ΔT was calculated and expressed as a percentage: ΔT/ΔT=(delta T/delta C)×100. A dose is considered therapeutically active when ΔT/ΔT is lower than 40% and very active when ΔT/ΔT is lower than 10%. […] Percent tumor regression is defined as the percent of tumor volume decrease in the treated group at a specified observation day compared to its volume on the first day of first treatment. At a specific time point and for each animal, percent regression is calculated. The median percent regression is then calculated for the group. % regression (at t)=[volumet0−volumet/volument0]×100. Partial regression (PR): Regressions are defined as partial if the tumor volume decreases to 50% of the tumor volume at the start of treatment. Complete regression (CR): Complete regression is achieved when tumor volume=0 mm^3 (CR is considered when tumor volume cannot be recorded). TFS: Tumor free is defined as the animals with undetectable tumors at the end of the study (>100 days post last treatment).

[3] = test system: p85-associated pTyr proteins in BT474 cells; experiment: p85 immunoprecipitation with pTyr / HER3 immunoblot; type: cell-based, human; details: BT474, 0-20 μM, 24 hours
Method: FIG. 13C depicts a photomicrrograph of immunoblots of cell lysates from BT474 cells which were treated with 0-20 μM compound A for 24 hours. Cells were then lysed, and 0.5 mg of lysate subjected to immunoprecipitation (IP) with a p85 antibody followed by p85 and pTyr.
FIG. 13D depicts a photomicrrograph of immunoblots of cell lysates from BT474 cells which were treated with 0-20 μM compound A for 24 hours. Cells were then lysed, and 0.5 mg of lysate subjected to immunoprecipitation (IP) with a p85 antibody followed by p85 and HER3.
Immunoprecipitation, immunoblotting, and RTK assays were performed according to published methods. […] Immunoreactive signals were detected by enhanced chemilluminsecence (Pierce, Rockford, Ill., USA). […]
In HER2 overexpressing cells, although not bound by any particular theory, it is believed that the main mechanism of activation of PI3K is the coupling of pHER3 to an SH2 domain in the N-terminus of p85, the regulatory subunit of PI3K. […] Consistent with previous studies, the p85-associated approximately 200-kDa band was also detected with HER3 and pHER3^Y1197 antibodies as shown in FIGS. 13D and 13F. […]

[4] = Compound A PO 5 (160) mg/kg Q1Dx32
[5] = Compound A PO 100 (3200) mg/kg Q1Dx32

COc1ccc(Cl)c(Nc2nc3ccccc3nc2NS(=O)(=O)c2cccc(NC(=O)C(C)(C)N)c2)c1 [Compound A]
HER3 expression, Change vs Control (%) ([1]; Compound A 30 mg/kg PO: Q1Dx1, 4 h): −3% | HER3 expression, Change vs Control (%) ([1]; Compound A 30 mg/kg PO: Q1Dx1, 24 h): 12% | HER3 expression, Change vs Control (%) ([1]; Compound A 30 mg/kg PO: Q1Dx2, 24 h): 23% | HER3 expression, Change vs Control (%) ([1]; Compound A 30 mg/kg PO: Q1Dx3, 24 h): 27% | HER3 expression, Change vs Control (%) ([1]; Compound A 100 mg/kg PO: Q1Dx1, 4 h): 10% | HER3 expression, Change vs Control (%) ([1]; Compound A 100 mg/kg PO: Q1Dx1, 24 h): 19% | HER3 expression, Change vs Control (%) ([1]; Compound A 100 mg/kg PO: Q1Dx2, 24 h): 45% | HER3 expression, Change vs Control (%) ([1]; Compound A 100 mg/kg PO: Q1Dx3, 24 h): 37% | HER3 expression in A549 lung model (summary of Table 5) ([1]; up to 96 hours): slight increase of HER3 expression | Average body weight change in % per mouse at nadir [2, 4]: −7.34% | Drug death (Day of death) [2, 4]: 0/7 | day of nadir [2, 4]: 65 days | Average body weight change in % per mouse at nadir [2, 5]: −10.25% | Drug death (Day of death) [2, 5]: 0/7 | day of nadir [2, 5]: 65 days | Average body weight change in % per mouse at nadir ([2]; Compound A PO 100 (3200) mg/kg Q1Dx32, listed as compound A): −10.3% | body weight loss at nadir ([2]; compound A at 30 mg/kg PO daily): −7.3% | p85-associated pTyr band [3]: dose-dependent increase of approximately 200-kDa main pTyr band

From US9011863B2, “Combinations of kinase inhibitors for the treatment of cancer” (Exelixis, Inc., priority 2010, dated 2015)
